Assay results as given in the METLIN SMRT retention time set (Domingo-Almenara et al. 2019).

Assay: gradient 5% acetonitrile 3 min, to 50% in 2 min, to 85% in 15 min, held 3 min, 100 µL/min
Conditions: column: Zorbax Extend-C18 2.1 x 50 mm; eluents: water / acetonitrile, 0.1% formic acid
How it was run: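 Retention times come from adduct peaks that were picked computationally and then checked by hand. The standards, pure and pooled in mixtures of ~100 molecules, were run on a Zorbax Extend-C18 column (2.1 × 50 mm, 1.8 μm) at 100 μL/min with water and acetonitrile, each with 0.1% formic acid. Detection was by quadrupole time-of-flight mass spectrometry in positive and negative ionization mode, with a dead volume of 40 μL and a dwell volume of 900 μL.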
Molecule `Cc1cc(C)c(-c2noc(C)n2)c(NC(=O)c2ccc(C)c(F)c2)n1` has an RP-LC retention time of 781 s.
Work on `CCN1CCn2cc(C(=O)NCc3ccc(C(C)C)cc3)nc2C1` yielded an RP-LC retention time of 644 s.
Work on `O=C(NCC1CC1)C1CCN(C(=O)c2ncn3c2COC(c2ccc(Cl)cc2)C3)CC1` (stereo not given) yielded an RP-LC retention time of 758 s.
Molecule `CCc1ccc(NS(=O)(=O)c2c(C)nc3sc4cc(C)ccc4n3c2=O)cc1` has an RP-LC retention time of 1240 s.
`Cn1nc(-c2nc(C3CC3)no2)c2c1CCN(C(=O)Nc1ccc(F)cc1)C2` showed an RP-LC retention time of 768 s.
For `CC(C)(C)n1nnnc1C1CC2(CCOCC2)C(=O)N1Cc1cccc(F)c1` (stereo not given), the RP-LC retention time was 784 s.
In the case of `COc1ccc(-c2nc(-c3ccc4c(c3)nc(C)c(=O)n4C)no2)cc1OC`, the RP-LC retention time was 876 s.
Molecule `CC(C)c1ccc(NC(=O)Cn2nc3n(c2=O)CCCCC3)cc1` has an RP-LC retention time of 779 s.
Work on `CC(=O)c1cccc(NC(=O)Cc2csc3nc(-c4ccccc4)cn23)c1` yielded an RP-LC retention time of 729 s.
`COc1cc2nccc(Oc3ccc(NC(=O)Nc4ccc(F)cc4F)c(F)c3)c2cc1OC` showed an RP-LC retention time of 782 s.
For `N#Cc1cccc(CN2CCC(F)(F)C(CO)C2)c1` (stereo not given), the RP-LC retention time was 551 s.
Molecule `O=C(NCc1csc(C2CCN(C(=O)C3CCCO3)CC2)n1)C1CC1` (stereo not given) has an RP-LC retention time of 614 s.
Molecule `CCc1nc2c(c(=O)n1CC(=O)Nc1ccccc1OC)CN(Cc1ccccc1)CC2` has an RP-LC retention time of 650 s.
For `Cc1ccc(CNC(=O)C2(C)CN(S(=O)(=O)c3ccccc3)CC(=O)N2CCC(C)C)cc1` (stereo not given), the RP-LC retention time was 1030 s.
`CCCNC(=O)C1CCCN(c2nc3ncn(CC(=O)Nc4ccccc4)c(=O)c3s2)C1` (stereo not given) gave an RP-LC retention time of 683 s.
In the case of `CCOC(=O)COc1cc(-c2ccc(F)cc2)nc2ccc(NC(=O)COc3ccccc3)cc12`, the RP-LC retention time was 924 s.
Work on `Cc1nc(SCC(=O)Nc2nc3ccccc3s2)c2c(=O)n(C)c(=O)n(C)c2n1` yielded an RP-LC retention time of 793 s.
In the case of `O=C(Nc1ccc2c(c1)CN(C(=O)c1cccs1)CC2)c1cnccn1`, the RP-LC retention time was 708 s.
`CCCN1C(=O)COc2ccc(-c3noc(C4CC(=O)N(c5cccc(Cl)c5)C4)n3)cc21` (stereo not given) gave an RP-LC retention time of 1080 s.
Molecule `CCCc1ccc(-c2csc(NC(=O)c3ccc(C)o3)n2)cc1` has an RP-LC retention time of 1210 s.
For `CCN1C(=O)COc2ccc(-c3nc(NC(=O)c4ccc(F)cc4)sc3C)cc21`, the RP-LC retention time was 1050 s.
In the case of `COc1ccc(-c2cc3c(=O)n(Cc4ccc(C)cc4C)ccn3n2)cc1OC`, the RP-LC retention time was 1020 s.
For `O=C(CSc1ccc(N2CCN(c3ccccc3)CC2)nn1)NCc1ccco1`, the RP-LC retention time was 735 s.
Work on `O=C(NCC1CCCCC1)C1CCN(C(=O)c2ncn3c2COC(c2ccccc2)C3)CC1` (stereo not given) yielded an RP-LC retention time of 802 s.
`O=C(NCc1ccc(N2CCOCC2)nc1)c1ccc(Cl)s1` gave an RP-LC retention time of 618 s.
`Cc1cc(C)cc(Nc2c(-c3ccc(N4CCOCC4)cc3)nc3ncccn23)c1` gave an RP-LC retention time of 719 s.
With `CC(=O)Nc1ccc(NC(=O)C2CCCN(c3ccc(=O)n(-c4ccc(C)c(Cl)c4)n3)C2)cc1` (stereo not given) the RP-LC retention time was 768 s.
Molecule `Cc1cc2[nH]c(C(=O)Nc3cc(F)c(F)cc3F)c(CN3CCCC3)c2s1` has an RP-LC retention time of 864 s.
`Cc1ccc(N2CC(c3nc(Cn4cnc5ccccc5c4=O)no3)CC2=O)cc1C` (stereo not given) showed an RP-LC retention time of 789 s.
For `CC1CCN(C(=O)c2ccc3ncnc(N4CCCCC4)c3c2)CC1`, the RP-LC retention time was 638 s.
For `CC(=O)c1ccc(NS(=O)(=O)c2ccc3ccccc3c2)cc1`, the RP-LC retention time was 822 s.
With `Cc1oc(-c2[nH]ncc2C(=O)N(C)C)cc1S(=O)(=O)Nc1ccc(Cl)cc1F` the RP-LC retention time was 714 s.
Work on `O=C(Cn1nc2n(c1=O)CCCCC2)NCc1ccccc1Cl` yielded an RP-LC retention time of 719 s.
Molecule `Cc1ccc(NC(=O)Cn2cnc3nc(N4CCC(C(=O)NC5CC5)CC4)sc3c2=O)c(C)c1` has an RP-LC retention time of 678 s.
For `COC(=O)CSCC(=O)Nc1cc(C(F)(F)F)ccc1Cl`, the RP-LC retention time was 613 s.
Work on `CCN(CC)c1nc2ccsc2c(=O)n1CCC(=O)N1CCN(c2ccccn2)CC1` yielded an RP-LC retention time of 683 s.
With `COc1cccc(NS(=O)(=O)c2c(C)nn(-c3ccc(-c4ccc(C)cc4)nn3)c2C)c1` the RP-LC retention time was 1080 s.
`COc1ccc(-c2noc(Cc3nnc(-c4ccc(Cl)cc4)o3)n2)cc1` gave an RP-LC retention time of 1060 s.
`O=C(NC1CCCC1)N1c2ccccc2CC1c1noc(C2CCOCC2)n1` (stereo not given) showed an RP-LC retention time of 854 s.
For `COCC(=O)Nc1ccc(-c2nc3cccnc3s2)cc1C`, the RP-LC retention time was 729 s.
With `O=C(CN1CCN(Cc2ccccc2)C1=O)N1CCN(c2ccc(F)cc2)CC1` the RP-LC retention time was 813 s.
`O=C(NCc1ccc2c(c1)CCCN2C(=O)C1CCC1)c1cc(F)cc(F)c1` showed an RP-LC retention time of 934 s.
Work on `Cc1ccc(NC(=O)CN2C(=O)CCc3cc(S(=O)(=O)N4CCCCC4C)ccc32)cc1C` (stereo not given) yielded an RP-LC retention time of 720 s.
`Cc1ccc(-c2ccc(-n3nc(C)c(S(=O)(=O)N4CCCC4)c3C)nn2)cc1` showed an RP-LC retention time of 989 s.
`CC(=O)NCc1ccc(-c2noc(-c3ccc(Br)cc3)n2)s1` gave an RP-LC retention time of 938 s.
